Consider eight compounds from PubChem BioAssay (NCI).

Each structure is given as a SMILES string. Values joined by “and” are separate entries in the source; they are usually repeats but may differ in a detail not shown here. Equal entries are not always repeated.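 Step 1: Grow cells in 96-well plates. Step 2: Expose to compound for 48 hours at 5 concentrations. Step 3: Interpolate endpoints linearly; if unreached, use highest concentration. The concentration for 50% growth inhibition is given as GI50. TGI: concentration producing complete growth inhibition.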 Where only a bound is given, the exact number is not on record here.

Test systems include A498 renal; BT-549 breast; HL-60(TB) leukemia; MDA-MB-231 breast; NCI-H226 lung; NCI-H460 lung; NCI-H522 lung; NCI/ADR-RES ovarian; OVCAR-3 ovarian; T-47D breast.
Assay in all cases: inhibition of tumour cell growth, NCI panel, 48 h

For `COC(=O)/C=C1/SC(N2N=C(c3cccs3)CC2c2ccc(F)cc2)=NC1=O` (centres undefined), the GI50 with A498 renal is 1.81 µM; in the assay on BT-549 breast it was 3.21 µM; with HL-60(TB) leukemia it was 2.88 µM; in the assay with MDA-MB-231 breast, 2.96 µM; in the assay with NCI-H226 lung it was 2.24 µM; with NCI-H460 lung, 2.19 µM. Moreover, the GI50 was 2.15 µM in the assay on NCI-H522 lung, 2.84 µM in the assay with NCI/ADR-RES ovarian, 2.19 µM in the assay with OVCAR-3 ovarian and 3.27 µM in the assay with T-47D breast. Also, the TGI came to 6.26 µM in the assay on A498 renal; 8.09 µM in the assay on BT-549 breast; 6.35 µM in the assay on HL-60(TB) leukemia; 8.16 µM with MDA-MB-231 breast; 6.32 µM with NCI-H226 lung; 4.93 µM with NCI-H460 lung. The TGI in the assay with NCI-H522 lung is 4.79 µM; in the assay with NCI/ADR-RES ovarian, 8.61 µM; in the assay on OVCAR-3 ovarian, 5.27 µM; with T-47D breast, 8.31 µM.

For `C/C(=N\NC(=S)N1CC2CCC(CC2)C1)c1cccc(C)n1`, the TGI is 13.2 µM with A498 renal; 10.3 µM with BT-549 breast; 4.45 µM in the assay with HL-60(TB) leukemia; 17.8 µM in the assay on MDA-MB-231 breast; 7.73 µM in the assay on NCI-H226 lung; 5.53 µM with NCI-H460 lung. The TGI in the assay on NCI-H522 lung was 0.343 µM and 1.5 µM; in the assay on OVCAR-3 ovarian, 9.75 µM; with T-47D breast it was 20.6 µM. The GI50 is 0.00016 µM with HL-60(TB) leukemia; 0.0633 µM in the assay with NCI-H460 lung; 0.232 µM in the assay with NCI-H522 lung; below 0.0001 µM with NCI/ADR-RES ovarian; 0.00014 µM with OVCAR-3 ovarian.

`Nc1nc(N)c2c(n1)NC(c1ccccc1)C1CCc3ccccc3C1=N2` (centres undefined): the GI50 in the assay with A498 renal was 2.29 µM; in the assay on BT-549 breast it was 5.42 µM; with HL-60(TB) leukemia, 2.37 µM; in the assay on MDA-MB-231 breast it was 6.02 µM; in the assay on NCI-H226 lung, 5.96 µM; with NCI-H460 lung it was 3.81 µM. In addition, the GI50 in the assay on NCI-H522 lung is 4.53 µM; in the assay on NCI/ADR-RES ovarian, 3.13 µM; in the assay on OVCAR-3 ovarian, 3.48 µM; in the assay on T-47D breast, 4.57 µM. Also, the TGI in the assay with A498 renal was found to be 8.66 µM; with BT-549 breast, 19.7 µM; in the assay with HL-60(TB) leukemia, 6.01 µM; in the assay with MDA-MB-231 breast, 20.3 µM; in the assay with NCI-H226 lung it was 28.9 µM; in the assay with NCI-H460 lung, 14.4 µM. Also, the TGI in the assay with NCI-H522 lung came to 21.2 µM; with NCI/ADR-RES ovarian it was 13.6 µM; in the assay on OVCAR-3 ovarian, 15.4 µM; with T-47D breast it was 25.6 µM.

In the case of `C[C@]1(Cn2ccnn2)C(C(=O)O)N2C(=O)CC2S1(=O)=O` (some centres undefined), the GI50 with A498 renal, in the assay on BT-549 breast, in the assay on HL-60(TB) leukemia, with MDA-MB-231 breast, in the assay on NCI-H226 lung and in the assay with NCI-H460 lung was above 100 µM throughout. Further, the GI50 with NCI-H522 lung, in the assay with NCI/ADR-RES ovarian, with OVCAR-3 ovarian and with T-47D breast was above 100 µM in each case. The TGI in the assay with A498 renal, in the assay with BT-549 breast, with HL-60(TB) leukemia, with MDA-MB-231 breast, in the assay on NCI-H226 lung and in the assay on NCI-H460 lung was above 100 µM in each case. In addition, the TGI in the assay on NCI-H522 lung, in the assay with NCI/ADR-RES ovarian, with OVCAR-3 ovarian and in the assay with T-47D breast was above 100 µM throughout.

With `N#Cc1c(N)nc(N)nc1N[C@H](c1nc2c(F)ccc(Cl)c2c(=O)n1-c1cccnc1)C1CC1`, the GI50 in the assay on A498 renal was 0.249 µM; with BT-549 breast, 0.761 µM; with HL-60(TB) leukemia, 2.28 µM; in the assay with MDA-MB-231 breast, 11.8 µM; in the assay on NCI-H226 lung, 15.5 µM; in the assay with NCI-H460 lung, 4.95 µM. Also, the GI50 in the assay on NCI-H522 lung is 34.2 µM; in the assay on NCI/ADR-RES ovarian, 28.5 µM; in the assay on OVCAR-3 ovarian it was 1.47 µM; in the assay with T-47D breast, 1.19 µM. The TGI in the assay with A498 renal was 1.55 µM; with BT-549 breast, 17.3 µM; with HL-60(TB) leukemia it was 82.8 µM; in the assay on MDA-MB-231 breast, 36.3 µM; with NCI-H226 lung, above 100 µM; in the assay on NCI-H460 lung it was above 100 µM. Besides, the TGI is above 100 µM with NCI-H522 lung, above 100 µM with NCI/ADR-RES ovarian, 16.3 µM in the assay on OVCAR-3 ovarian and 7.96 µM in the assay with T-47D breast.

Consider `C[C@]12CC[C@H]3[C@@H](C[C@@H]4SC(Nc5ccccc5)=N[C@@]45CC(O)CC[C@]35C)[C@@H]1CCC2O` (some centres undefined), for which the GI50 in the assay on A498 renal is 2.16 µM; in the assay with BT-549 breast, 1.38 µM; in the assay with HL-60(TB) leukemia, 2.02 µM; with MDA-MB-231 breast, 1.99 µM; with NCI-H226 lung, 2.4 µM; with NCI-H460 lung it was 1.95 µM. Besides, the GI50 with NCI-H522 lung is 1.9 µM; in the assay with NCI/ADR-RES ovarian, 3.39 µM; in the assay with OVCAR-3 ovarian, 1.28 µM; with T-47D breast it was 2.41 µM. The TGI amounted to 5.66 µM in the assay with A498 renal; 4.31 µM in the assay with BT-549 breast; 6.87 µM in the assay with HL-60(TB) leukemia; 4.63 µM with MDA-MB-231 breast; 5.57 µM in the assay on NCI-H226 lung; 4.04 µM with NCI-H460 lung. The TGI turned out to be 4.5 µM in the assay on NCI-H522 lung, 91.7 µM in the assay with NCI/ADR-RES ovarian, 2.62 µM with OVCAR-3 ovarian and 7.59 µM in the assay on T-47D breast.

Consider `O=[n+]1c2ccccc2n([O-])c2cc(Cl)ccc21`, for which the GI50 with A498 renal was 1.14 µM; in the assay with BT-549 breast, 5.2 µM; in the assay on HL-60(TB) leukemia, 2.07 µM; in the assay on MDA-MB-231 breast, 4.21 µM; in the assay with NCI-H226 lung, 7.32 µM; in the assay on NCI-H460 lung, 2.05 µM. Moreover, the GI50 in the assay on NCI-H522 lung was 1.47 µM; in the assay with NCI/ADR-RES ovarian, 4.31 µM; with OVCAR-3 ovarian it was 3.48 µM; in the assay on T-47D breast, 1.96 µM. Moreover, the TGI came out at 14.7 µM in the assay on A498 renal; 24.1 µM in the assay on BT-549 breast; 4.47 µM in the assay with HL-60(TB) leukemia; 22.2 µM in the assay with MDA-MB-231 breast; 25.6 µM in the assay with NCI-H226 lung; 14.7 µM in the assay with NCI-H460 lung. Further, the TGI turned out to be 3.11 µM in the assay with NCI-H522 lung, 40.3 µM in the assay with NCI/ADR-RES ovarian, 12.3 µM in the assay with OVCAR-3 ovarian and 11.7 µM in the assay on T-47D breast.

On to `C/C(=N\NC(=S)N1CCCCCCCCCCCC1)c1ccccn1`, for which the TGI in the assay with A498 renal is 1.32 µM; with BT-549 breast it was 1.6 µM; in the assay on HL-60(TB) leukemia, above 100 µM; in the assay on MDA-MB-231 breast, 1.22 µM; with NCI-H226 lung, 1.02 µM; in the assay on NCI-H460 lung, 1.43 µM. The TGI in the assay with NCI-H522 lung was found to be 0.408 µM; in the assay on NCI/ADR-RES ovarian, 9.7 µM; in the assay with OVCAR-3 ovarian, 1.48 µM; with T-47D breast, 1.25 µM.
